Tested on: gegen Progesteron-11α-bernsteinsäurehalbester-ovalbumin erzeugten Antiserum
Assay: Cross-reactivity of steroids in the radioimmunoassay for progesterone (competitive binding, 125I-labelled progesterone-3 tracer, charcoal separation)
Set-up: species or system Kaninchen
Conditions: relative to Progesteron = 100; acid buffer; heterologous system (11α-protein conjugate antiserum, 3-iodinated tracer)
Source text: Die vorliegende Erfindung stellt ein Radioimmunobesteck und eine Bestimmungsmethode für Progesteron zur Verfügung, welche dadurch gekennzeichnet ist, daß man in saurem Medium, vorzugsweise einem sauren Puffer, eine Flüssigkeitsprobe mit einer bekannten Menge von gegen ein Progesteron/Proteinkonjugat erzeugten Antikörpern, wobei das Protein über eine Brückengruppe in 11-Stellung, im allgemeinen 11α-Stellung, an das Progesteron gebunden ist, und mit einer bekannten Menge eines Progesteronderivats,das in 3-Stellung über eine Brücke mit einem Rest substituiert ist, welcher ein oder mehrere Atome eines Jodradioisotops trägt, inkubiert, . das in dem entstandenen Antikörper /Antigenkomplex gebundene Steroid von der freien Steroidkomnonente abtrennt und deren Radioaktivität oder die des Antikörper/Antigenkomplexes mißt. Im allgemeinen wird das Antiserum zuletzt zugesetzt, und der Indikator wird vorzugsweise zum Standard bzw. zur Probe gegeben.
Wie oben erwähnt ist die eigentliche Bestimmung eine herkömmliche radioimmunologische Bestimmung mit Bindungskonkurrenz, d.h. sie ist abhängig von der Konkurrenz zwischen unmarkiertem Progesteron und einem radiojodierten Progesteronderivat um die Bindungsstellen eines progesteronspezifischen Antikörpers. Der an den Antikörper gebundene Anteil an jodiertem Progesteron ist der Menge des vorhandenen unmarkierten Progesterons umgekehrt proportional. Dieser Anteil wird dadurch gemessen, daß man die gebundenen und freien Komponenten trennt, im allgemeinen durch Adsorption der letzteren, und die Radioaktivität der einen oder der anderen mißt.
Die bevorzugte Reagenzienkombination für die erfindungsgemäße Bestimmungsmethode besteht aus einem gegen Progesteron-11α-bernsteinsäurehalbester-ovalbumin erzeugten Antiserum und Progesteron-3-(0-carboxymethyl)-oxim-[^125J]-jodhistamin. J]-jodhistamin.
Die Bestimmung wird auf herkömmliche Weise durchgeführt, beispielsweise erstellt man einen Satz Röhrchen, die jeweils ein Aliquot an 3-jodiertem Indikator und entweder eine bekannte Menge einer Standardprogestercnlösung in einem geeigneten, von Steroid befreiten Verdünnungsmittel oder eine unbekannte Probe enthalten. Vorzugsweise gibt man den Indikator zum Standard oder zur Probe. Ein Aliquot des Antiserums wird in jedes Röhrchen gegeben, dessen Inhalt gut vermischt und stehengelassen wird, vorzugsweise bei 0 - 4°C. Die Bestimmung läßt sich jedoch auch bei höheren Temperaturen, z.B. Raumtemperatur oder 37°C, durchführen. Nach Ablauf einer gewissen Zeit, vorzugsweise 21/2 - 5 Stunden, wird jedem Röhrchen ein Aliquot eines Trennmittels zugesetzt. Das Trennmittel ist beispielsweise ein zweiter Antikörper oder (NH4)2S04, jedoch vorzugsweise Aktivkohle. Man läßt dem Trennmittel genügend Zeit, um das freie Steroid zu binden, trennt es vom Rest des Röhrcheninhalts, im Falle von Aktivkohle vorzugsweise durch Zentrifugieren, und bestimmt die Radioaktivität der festen oder flüssigen Phase. Im Falle von Aktivkohle als Adsorptionsmittel wird vorzugsweise die feste Phase, d.h. die Radioaktivität des freien (nichtantikörpergebundenen) jodierten Indikators gemessen.Andernfalls kann man eine Probe der überstehenden flüssigen Phase nehmen und zählen. Man erstellt eine Standardkurve, und die in der Probe vorliegende Menge Progesteron kann aus der Kurve interpoliert werden.
Die Kreuzreaktivität verschiedener Steroide bei der erfindungsgemäßen Bestimmungsmethode ist unten angegeben.

| Compound | % Kreuzreaktivität |
| --- | --- |
| CC(=O)[C@H]1CC[C@H]2[C@@H]3CC[C@@H]4C[C@H](O)CC[C@]4(C)[C@H]3CC[C@]12C [5ß-Pregnan-3α-01-20-on] | 8,0% |
| C[C@H](O)[C@H]1CC[C@H]2[C@@H]3CCC4=CC(=O)CC[C@]4(C)[C@H]3CC[C@]12C [20α-Hydroxyprogesteron] | 0,25% |
| CC(=O)[C@H]1CC[C@H]2[C@@H]3CC[C@H]4CC(=O)CC[C@]4(C)[C@H]3CC[C@]12C [5α-Pregnan-3,20-dion] | 6,0% |
| CC(=O)[C@H]1CC[C@H]2[C@@H]3CCC4=CC(=O)CC[C@]4(C)[C@H]3CC[C@]12C [Progesteron] | 100% |
| C[C@]12CC[C@H]3[C@@H](CCC4=CC(=O)CC[C@@]43C)[C@@H]1CC[C@@H]2C(=O)CO [Desoxycorticosteron] | 0,01% |
| CC(=O)[C@H]1CC[C@H]2[C@@H]3CC=C4C[C@@H](O[C@@H]5O[C@H](C(=O)O)[C@@H](O)[C@H](O)[C@H]5O)CC[C@]4(C)[C@H]3CC[C@]12C [Pregnenolonglucuronid] | 10,0% |
| C[C@H](O)[C@H]1CC[C@H]2[C@@H]3CC[C@@H]4C[C@H](O)CC[C@]4(C)[C@H]3CC[C@]12C [5ß-Pregnan-3α, 20α-diol] | 0,7% |
| CC(=O)[C@H]1CC[C@H]2[C@@H]3CC=C4C[C@@H](OS(=O)(=O)O)CC[C@]4(C)[C@H]3CC[C@]12C [Pregnenolonsulfat] | 0,4% |
| C[C@]12C[C@H](O)[C@H]3[C@@H](CCC4=CC(=O)CC[C@@]43C)[C@@H]1CC[C@@H]2C(=O)CO [Corticosteron] | 2,7% |
| CC(=O)[C@H]1CC[C@H]2[C@@H]3CC=C4C[C@@H](O)CC[C@]4(C)[C@H]3CC[C@]12C [Pregnenolon] | 10,5% |
| CC(=O)[C@@]1(O)CC[C@H]2[C@@H]3CCC4=CC(=O)CC[C@]4(C)[C@H]3CC[C@@]21C [17α-Hydroxyprogesteron] | 1,3% |

From patent EP0031926A2, “Radioimmunological set for the determination of progesterone and its use, and radioimmunoassay method for the determination of progesterone” (HOECHST AKTIENGESELLSCHAFT, priority 1979, dated 1981)
